Patent publication US20090036418A1, “Pharmaceutical composition for treatment of cancer containing pyridylpyridazine or transition metal complex thereof as active ingredient” (priority 2005, published 2009)

Tested on: XF-498 (human brain cancer)
Assay: SRB assay, XF-498 cancer cell line
Format: cell-based
Conditions: brain cancer cell line of Test Example 1, SRB assay
Experimental: The pyridylpyridazine compounds prepared in Preparation Examples 1 to 5 and transition metal complexes thereof were evaluated for the anticancer activities thereof. As cancer cell lines used in the test, A549 (human lung cancer), SK-MEL-2 (human skin cancer), HCT-15 (human colon cancer), SK-OV-3 (human […]) and XF-498 (human brain cancer) among 60 kinds of cancer cell lines[Ross, D. T. et al., Systematic variation in gene expression patterns I human cancer cell lines. Nature genetics, 24, 227-235 (2000)], which are used for the search of anticancer activity in the US National Cancer Institute, were obtained from the Bioorganic Research Division, the Korea Research Institute of Chemical Technology. The anticancer activities of the cell lines were evaluated by measuring ED50 values according to the sulforhodamine B (SRB) assay described in the literature[Choi, S. et al., Cytotoxicity of trichlorothecenes to human solid tumor cells in vitro. Arch. Pharm. Res. 19, 6-11 (1996)]. […]
More specifically, the SRB assay was performed in the following manner. […] After completion of the culture, each well was well washed, treated with 150 μl (10 mM) of unbuffer ED Tris solution to dissolve out the SRB dye, and then measured for absorbance at 520 nm using a reader for 96-well plates. […]

| Compound | anticancer activity against the brain cancer cell line (in words) |
| --- | --- |
| c1ccc(-c2ccc(-c3ccccn3)nn2)nc1 [Compound of Preparation Example 1, 3,6-bis(2′-pyridyl)pyridazine] | high anticancer activity |
| [3,6-bis(6′-methyl-2′-pyridyl)pyridazine]zinc(II) chloride [Compound of Preparation Example 4] | excellent anticancer activity |
